Assay results: patent US9962623B2, “Process to remove product alcohols from fermentation broth” (BUTAMAX ADVANCED BIOFUELS LLC, priority 2011, dated 2018)

System: yeast strain, Saccharomyces cerevisiae
Experiment: Effect of disinfectant on cell viability
Type: cell-based
Details: 5 mL cells mixed with 5 mL disinfectant solution
Method: A study was conducted to determine the effect of disinfectant on the viability of a yeast strain, Saccharomyces cerevisiae. The primary culture was prepared by incubating seed stock of the yeast in 10 mL tubes containing YPS media at 30° C. for 24 hours in an incubator shaker (Innova 4200, New Brunswick Scientific, Edison, N.J.). Klett flasks containing 50 mL broth were then inoculated with the aliquots of primary culture, and the flasks were incubated at 30° C. in an incubator shaker. The cells were grown until the Klett readings reached about 220. Dey-Engley neutralizing broth (DE broth) (Sigma-Aldrich Corp., St. Louis, Mo.) was used as the neutralizing dilution agent. […] Thin plates were also prepared with the DE broth/agar. […] Cells (5 mL) were mixed with 5 mL sterile PBS or 5 mL of the disinfectant solutions, and incubated for various time points (0.5, 1, 2.5, 5, or 10 minutes). […] After drying, the plates were inverted and incubated at 30° C. The black bar denotes the maximum detection limit of this test.

Measured: cell viability (cells counted on DE broth/agar plates)

CCO [70% alcohol, ethanol]
<10: 0.5 minutes incubation | 1 minute incubation | 2.5 minutes incubation | 5 minutes incubation | 10 minutes incubation
